From ChEMBL document CHEMBL1201862, “PubChem BioAssay data set” (2004) come the findings set out here.

Molecules are shown by their SMILES.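 Each compound was tested at five concentrations against cells in 96-well plates for 48 hours. Here, GI50 denotes the concentration required for 50% inhibition of growth.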 The source made the active and inactive calls. No stated cut-off is given here; in the data, active = GI50 up to about 1.1 µM and inactive = higher. Where a SMILES comes first, the peptide text is derived from it. The star is where a group is joined. Boc = CC(C)(C)OC(=O)*; OBn = c1ccc(CO*)cc1

Among the test systems are SNB-75; SF-268; SW-620; HT-29; SF-295; LOX IMVI; HCT-116; ACHN; NCI-H460; NCI-H226; MDA-MB-231; CAKI-1; OVCAR-5; SK-MEL-5; M14; OVCAR-4; MDA-MB-435; SNB-19; HCC 2998; UO-31.
Holding throughout (assay): NCI-60 cell line screen, 48 h

Consider `Cc1ccc(S(=O)(=O)NCc2cccc([N+](=O)[O-])c2)cc1`, for which the GI50 with SNB-75, in the experiment on SF-268, with SW-620, in the experiment on HT-29, with SF-295 and in the experiment with LOX IMVI was > 100 µM (inactive) each time. The GI50 in the experiment on HCT-116, in the experiment with ACHN, with NCI-H460, in the experiment on NCI-H226, in the experiment on MDA-MB-231 and in the experiment on CAKI-1 was > 100 µM (inactive) each time. Further, the GI50 in the experiment with OVCAR-5, with SK-MEL-5, in the experiment with M14, with OVCAR-4, in the experiment with MDA-MB-435 and in the experiment with SNB-19 was > 100 µM (inactive) each time.
Take `CCC(=O)Nc1ccc(NCC(=O)Nc2ccc(Cl)cc2)cc1`: the GI50 in the experiment on SNB-75 was 25.5 µM (inactive); in the experiment with SF-268 it was 22.6 µM (inactive); in the experiment with SW-620, 24.7 µM (inactive); with HT-29, 10.6 µM (inactive); in the experiment with SF-295 it was 14.4 µM (inactive); in the experiment on LOX IMVI it was 13.1 µM (inactive). For the same compound, the GI50 is 14.4 µM (inactive) in the experiment on HCT-116; 13.3 µM (inactive) in the experiment with ACHN; 18.2 µM (inactive) in the experiment with NCI-H226; 13.2 µM (inactive) with HCC 2998; 14.3 µM (inactive) in the experiment on CAKI-1; 13.9 µM (inactive) in the experiment with OVCAR-5. The GI50 in the experiment on SK-MEL-5 is 15.8 µM (inactive); with UO-31, 22.3 µM (inactive); in the experiment with M14, 15.3 µM (inactive); in the experiment on OVCAR-4 it was 14 µM (inactive); in the experiment on MDA-MB-435 it was 15.7 µM (inactive); with SNB-19, 19.8 µM (inactive).
As for `COc1cc2c3c(c1)c1cc(OC)c(OC)cc1c[n+]3CC2`, the GI50 in the experiment on SF-268 is 0.0175 µM (active); in the experiment with SW-620, > 50 µM (inactive); in the experiment with HT-29 it was 23 µM (inactive); in the experiment on SF-295, 15.5 µM (inactive); in the experiment on LOX IMVI it was 28.7 µM (inactive); with HCT-116, 8.36 µM (inactive). Besides, the GI50 was > 50 µM (inactive) with ACHN; 4.32 µM (inactive) with NCI-H460; 14.2 µM (inactive) in the experiment on NCI-H226; > 50 µM (inactive) in the experiment on MDA-MB-231; 30.6 µM (inactive) with CAKI-1; > 50 µM (inactive) with OVCAR-5. The GI50 in the experiment with SK-MEL-5 was 13.6 µM (inactive); in the experiment with UO-31, > 100 µM (inactive); with M14 it was > 50 µM (inactive); with OVCAR-4, 15 µM (inactive); in the experiment with MDA-MB-435, 25.8 µM (inactive); in the experiment with SNB-19 it was 2.49 µM (inactive).
In the case of `Cc1ccc2nc3n(c2c1)C(c1c(F)cccc1F)SC3` (stereo not drawn), the GI50 in the experiment with SNB-75, in the experiment on SF-268, in the experiment on SW-620, in the experiment on HT-29, with SF-295 and in the experiment with LOX IMVI was > 100 µM (inactive) in each case. Besides, the GI50 with HCT-116, in the experiment on ACHN, in the experiment with NCI-H460, with NCI-H226, in the experiment with MDA-MB-231 and with HCC 2998 was > 100 µM (inactive) each time. Besides, the GI50 with CAKI-1 is 19.1 µM (inactive); in the experiment on OVCAR-5, > 100 µM (inactive); in the experiment with SK-MEL-5, > 100 µM (inactive); in the experiment on UO-31, > 100 µM (inactive); with M14, > 100 µM (inactive); with OVCAR-4, > 100 µM (inactive). In the experiment on SNB-19, the GI50 was > 100 µM (inactive).
Turning to `CCOC(=O)C(Cc1ccccc1)NC(=O)c1ccc(/N=N/N(C)C)cc1` (stereo not drawn), the GI50 in the experiment with SNB-75, in the experiment on SF-268, in the experiment on SW-620, in the experiment on HT-29, with SF-295 and in the experiment with LOX IMVI was > 100 µM (inactive) in each case. The GI50 in the experiment on HCT-116, in the experiment on ACHN, in the experiment on NCI-H460, in the experiment with NCI-H226, in the experiment on HCC 2998 and in the experiment with CAKI-1 was > 100 µM (inactive) each time. Besides, the GI50 in the experiment with OVCAR-5, with SK-MEL-5, with UO-31, with M14, in the experiment on OVCAR-4 and in the experiment with SNB-19 was > 100 µM (inactive) each time.
As for `COC(=O)c1ccccc1/C=C1\Cc2c(C)c3c(c(C)c2C1=O)CCC3`, the GI50 is 63.7 µM (inactive) in the experiment on SNB-75; 64.1 µM (inactive) in the experiment with SF-268; > 100 µM (inactive) in the experiment with SW-620; > 100 µM (inactive) in the experiment on HT-29; > 100 µM (inactive) in the experiment with SF-295; > 100 µM (inactive) with LOX IMVI. Besides, the GI50 in the experiment with HCT-116, with ACHN, in the experiment with NCI-H460, with NCI-H226, in the experiment on HCC 2998 and in the experiment on CAKI-1 was > 100 µM (inactive) in each case. Also, the GI50 is > 100 µM (inactive) in the experiment on OVCAR-5; > 100 µM (inactive) in the experiment on SK-MEL-5; > 100 µM (inactive) in the experiment on UO-31; > 100 µM (inactive) in the experiment on M14; 30.1 µM (inactive) in the experiment on OVCAR-4; > 100 µM (inactive) in the experiment with MDA-MB-435. Moreover, the GI50 in the experiment with SNB-19 is > 100 µM (inactive).
Consider `Cc1cc(OC(=O)Nc2ccc(Cl)cc2)ccc1C(=S)Nc1ccccc1`, for which the GI50 was 49.9 µM (inactive) in the experiment on SNB-75; 47.9 µM (inactive) with SF-268; > 100 µM (inactive) with SW-620; 24.5 µM (inactive) in the experiment with HT-29; 38.5 µM (inactive) in the experiment on SF-295; 29.3 µM (inactive) in the experiment on LOX IMVI. The GI50 in the experiment on HCT-116 was 28.6 µM (inactive); in the experiment on ACHN, 18.7 µM (inactive); with NCI-H460 it was 18.5 µM (inactive); in the experiment on HCC 2998 it was 26.3 µM (inactive); in the experiment with CAKI-1, 31.8 µM (inactive); with OVCAR-5, 57 µM (inactive). The GI50 was 28 µM (inactive) in the experiment on SK-MEL-5; 73.5 µM (inactive) in the experiment with UO-31; 12.6 µM (inactive) with M14; 24.8 µM (inactive) with OVCAR-4; 54 µM (inactive) with MDA-MB-435; > 100 µM (inactive) in the experiment with SNB-19.
For `COC(=O)C(Cc1ccccc1)NP(=O)(O)OCC1OC(n2cc(I)c(=O)[nH]c2=O)CC1O` (stereo not drawn), the GI50 with SNB-75, with SF-268, with SW-620, in the experiment on HT-29, in the experiment with SF-295 and in the experiment on LOX IMVI was > 100 µM (inactive) in each case. In addition, the GI50 in the experiment with HCT-116, in the experiment on ACHN, with NCI-H460, in the experiment with NCI-H226, with MDA-MB-231 and with CAKI-1 was > 100 µM (inactive) each time. For the same compound, the GI50 in the experiment with SK-MEL-5, with UO-31, in the experiment on M14, in the experiment on OVCAR-4, in the experiment with MDA-MB-435 and with SNB-19 was > 100 µM (inactive) throughout.
Consider `CCCSc1ccc2[nH]c(/N=C/c3ccccc3)cc2c1`, for which the GI50 in the experiment with SNB-75 is 20.5 µM (inactive); in the experiment with SF-268, 19.7 µM (inactive); in the experiment with SW-620, 23.1 µM (inactive); in the experiment with HT-29, 22.3 µM (inactive); in the experiment with LOX IMVI it was 17.4 µM (inactive); in the experiment on HCT-116 it was 17.7 µM (inactive). Moreover, the GI50 with ACHN was 31.2 µM (inactive); with CAKI-1 it was 19.4 µM (inactive); in the experiment on OVCAR-5, 40.1 µM (inactive); in the experiment on SK-MEL-5 it was 7.14 µM (inactive); in the experiment on UO-31, 30.3 µM (inactive); in the experiment on M14 it was 25.5 µM (inactive). The GI50 in the experiment on OVCAR-4 was 16.8 µM (inactive); in the experiment with MDA-MB-435, 5.75 µM (inactive).
`CC[C@H]1C=CCC[C@@]2(C[C@@H]3CC[C@H]4[C@@H](C(=O)OCCCCCCCCCCCCCCCC(=O)N(CCCN)C[C@@H](O)CCN)[C@@]5(CCC[C@@H](C)O5)NC(=[N+]34)N2)O1`: the GI50 in the experiment with SF-268 is 1.93 µM (inactive); with SW-620, 2.12 µM (inactive); with HT-29, 1.61 µM (inactive); with SF-295, 1.9 µM (inactive); with LOX IMVI it was 1.91 µM (inactive); in the experiment with HCT-116, 1.61 µM (inactive). For the same compound, the GI50 in the experiment on ACHN was 3.9 µM (inactive); in the experiment with NCI-H460, 1.74 µM (inactive); in the experiment with NCI-H226, 1.6 µM (inactive); in the experiment on HCC 2998, 1.73 µM (inactive); in the experiment with CAKI-1, 5.64 µM (inactive); in the experiment with OVCAR-5, 1.63 µM (inactive). Besides, the GI50 is 1.47 µM (inactive) in the experiment with SK-MEL-5; 9.18 µM (inactive) in the experiment with UO-31; 1.91 µM (inactive) with M14; 3.4 µM (inactive) with OVCAR-4; 1.55 µM (inactive) in the experiment with MDA-MB-435.
As to `CC(C)CC(NC(=O)C(Cc1ccccc1)NC(=O)C(Cc1ccccc1)NC(=O)OC(C)(C)C)C(=O)OCc1ccccc1` (stereo not drawn) (Boc-Phe-Phe-Leu-OBn; configuration not given here), the GI50 with SNB-75, with SF-268, with SW-620, in the experiment on HT-29, in the experiment on SF-295 and with LOX IMVI was > 100 µM (inactive) each time. For the same compound, the GI50 in the experiment on HCT-116, in the experiment on NCI-H226, in the experiment with MDA-MB-231, with CAKI-1, in the experiment with OVCAR-5 and in the experiment on SK-MEL-5 was > 100 µM (inactive) throughout. Also, the GI50 in the experiment on UO-31, in the experiment on M14, with MDA-MB-435 and with SNB-19 was > 100 µM (inactive) in each case.
